Experimental findings from publication PMC12426469, “A Covalent and Modulable Inhibitor of the Tubulin‐Microtubule System: Insights Into the Mechanism of Cacalol” (Chemical Biology & Drug Design, 2025) are described below.

The target of this test is T1, α-tubulin (Sus scrofa, UniProt P02550).
T1 construct: gene TUBA1A; purified porcine brain α,β-tubulin; modified peptide 340SIQFVDWCPTGFK352 of α-tubulin; with β-tubulin
Put plainly: LC-MS of trypsin-digested tubulin showing covalent adduct; IC50 from in vitro tubulin polymerization assay. The format is biochemical.

T1 sequence (P02550 whole entry): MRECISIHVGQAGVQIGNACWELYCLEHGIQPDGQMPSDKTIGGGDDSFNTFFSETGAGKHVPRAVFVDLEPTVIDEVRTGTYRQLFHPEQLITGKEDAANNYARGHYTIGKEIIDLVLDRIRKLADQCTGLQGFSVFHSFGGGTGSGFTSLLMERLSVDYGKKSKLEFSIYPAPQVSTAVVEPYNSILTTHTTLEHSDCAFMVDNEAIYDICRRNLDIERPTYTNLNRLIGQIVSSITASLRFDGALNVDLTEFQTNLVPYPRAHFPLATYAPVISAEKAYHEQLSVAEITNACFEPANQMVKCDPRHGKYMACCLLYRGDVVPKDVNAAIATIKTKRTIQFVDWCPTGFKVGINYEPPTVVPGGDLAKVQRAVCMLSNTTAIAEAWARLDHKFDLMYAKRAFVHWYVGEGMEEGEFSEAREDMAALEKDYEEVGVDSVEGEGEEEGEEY
T1 sequence (P02554 whole entry partner): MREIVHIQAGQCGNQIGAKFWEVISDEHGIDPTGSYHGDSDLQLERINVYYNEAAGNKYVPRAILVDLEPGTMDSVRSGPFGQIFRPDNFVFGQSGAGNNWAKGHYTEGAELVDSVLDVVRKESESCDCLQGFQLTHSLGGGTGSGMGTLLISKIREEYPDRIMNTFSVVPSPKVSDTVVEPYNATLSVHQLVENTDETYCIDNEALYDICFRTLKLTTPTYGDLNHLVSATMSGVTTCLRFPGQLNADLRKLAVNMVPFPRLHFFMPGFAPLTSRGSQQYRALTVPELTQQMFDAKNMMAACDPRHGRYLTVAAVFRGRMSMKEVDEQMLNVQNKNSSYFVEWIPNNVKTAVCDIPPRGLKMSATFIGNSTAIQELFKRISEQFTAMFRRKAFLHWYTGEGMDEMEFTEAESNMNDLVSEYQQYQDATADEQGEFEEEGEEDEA

As to `C=C1C2=C(CCC[C@@H]2C)C(=O)c2occ(C)c21` [compound 2, (S)‐3,5‐Dimethyl‐4‐Methylene‐5,6,7,8‐Tetrahydronaphtho[2,3‐b]Furan‐9(4H )‐One], the IC50 was found to be 43 µM.
